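A five-concentration, 48-hour dose response in 96-well plates underlies each endpoint, interpolated linearly between surrounding concentrations. The concentration for 50% growth inhibition is given as GI50.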 Calls of active or inactive are those of the source. Rule as the data show it: active = GI50 up to about 1.1 µM and inactive = higher.
Key:
Test in all cases: inhibition of tumour cell growth, NCI panel, 48 h
786-0 = system: 786-0
A498 = system: A498
A549 = system: A549
ACHN = system: ACHN
CAKI-1 = system: CAKI-1
DLD-1 = system: DLD-1
DMS-114 = system: DMS-114
DMS-273 = system: DMS-273
EKVX = system: EKVX
HCC 2998 = system: HCC 2998
HCT-116 = system: HCT-116
HCT-15 = system: HCT-15
HL-60 = system: HL-60
HOP-18 = system: HOP-18
HOP-62 = system: HOP-62
HOP-92 = system: HOP-92
HT-29 = system: HT-29
IGROV-1 = system: IGROV-1
K562 = system: K562
KM-20L2 = system: KM-20L2
KM12 = system: KM12
LOX IMVI = system: LOX IMVI
LXFL 529 = system: LXFL 529
M14 = system: M14
M19-MEL = system: M19-MEL
MOLT-4 = system: MOLT-4
Malme-3M = system: Malme-3M
NCI-H226 = system: NCI-H226
NCI-H23 = system: NCI-H23
NCI-H460 = system: NCI-H460
OVCAR-3 = system: OVCAR-3
OVCAR-4 = system: OVCAR-4
OVCAR-5 = system: OVCAR-5
OVCAR-8 = system: OVCAR-8
RPMI-8226 = system: RPMI-8226
RXF 393 = system: RXF 393
RXF 631 = system: RXF 631
SF-268 = system: SF-268
SF-295 = system: SF-295
SF-539 = system: SF-539
SK-MEL-28 = system: SK-MEL-28
SK-MEL-2 = system: SK-MEL-2
SK-MEL-5 = system: SK-MEL-5
SN12C = system: SN12C
SNB-19 = system: SNB-19
SNB-75 = system: SNB-75
SNB-78 = system: SNB-78
SW-620 = system: SW-620
TK-10 = system: TK-10
U-251 = system: U-251
UACC-257 = system: UACC-257
UACC-62 = system: UACC-62
UO-31 = system: UO-31
XF498 = system: XF498
CCRF-CEM = system: CCRF-CEM
COLO 205 = system: COLO 205
NCI-H522 = system: NCI-H522
SK-OV-3 = system: SK-OV-3
SR = system: SR

## CC(C)=Cc1cc(C(=O)Nc2ccc(Cl)c(Cl)c2)nc(N)n1
786-0
  GI50: > 100 µM (inactive)
A498
  GI50: > 100 µM (inactive)
A549
  GI50: > 100 µM (inactive)
ACHN
  GI50: > 100 µM (inactive)
CAKI-1
  GI50: > 100 µM (inactive)
DLD-1
  GI50: > 100 µM (inactive)
DMS-114
  GI50: > 100 µM (inactive)
DMS-273
  GI50: > 100 µM (inactive)
EKVX
  GI50: > 100 µM (inactive)
HCC 2998
  GI50: > 100 µM (inactive)
HCT-116
  GI50: > 100 µM (inactive)
HCT-15
  GI50: > 100 µM
HL-60
  GI50: > 100 µM (inactive)
HOP-18
  GI50: 78.3 µM (inactive)
HOP-62
  GI50: > 100 µM (inactive)
HOP-92
  GI50: > 100 µM (inactive)
HT-29
  GI50: > 100 µM (inactive)
IGROV-1
  GI50: > 100 µM (inactive)
K562
  GI50: > 100 µM (inactive)
KM-20L2
  GI50: > 100 µM (inactive)
KM12
  GI50: > 100 µM (inactive)
LOX IMVI
  GI50: > 100 µM (inactive)
LXFL 529
  GI50: > 100 µM (inactive)
M14
  GI50: > 100 µM (inactive)
M19-MEL
  GI50: > 100 µM (inactive)
MOLT-4
  GI50: > 100 µM (inactive)
Malme-3M
  GI50: > 100 µM (inactive)
NCI-H226
  GI50: > 100 µM (inactive)
NCI-H23
  GI50: > 100 µM (inactive)
NCI-H460
  GI50: > 100 µM (inactive)
OVCAR-3
  GI50: > 100 µM (inactive)
OVCAR-4
  GI50: > 100 µM (inactive)
OVCAR-5
  GI50: > 100 µM (inactive)
OVCAR-8
  GI50: > 100 µM (inactive)
RPMI-8226
  GI50: > 100 µM (inactive)
RXF 393
  GI50: > 100 µM (inactive)
RXF 631
  GI50: > 100 µM (inactive)
SF-268
  GI50: > 100 µM (inactive)
SF-295
  GI50: > 100 µM (inactive)
SF-539
  GI50: > 100 µM (inactive)
SK-MEL-28
  GI50: > 100 µM (inactive)
SK-MEL-2
  GI50: > 100 µM (inactive)
SK-MEL-5
  GI50: > 100 µM (inactive)
SN12C
  GI50: > 100 µM (inactive)
SNB-19
  GI50: > 100 µM (inactive)
SNB-75
  GI50: > 100 µM (inactive)
SNB-78
  GI50: > 100 µM (inactive)
SW-620
  GI50: > 100 µM (inactive)
TK-10
  GI50: > 100 µM (inactive)
U-251
  GI50: > 100 µM (inactive)
UACC-257
  GI50: > 100 µM (inactive)
UACC-62
  GI50: > 100 µM (inactive)
UO-31
  GI50: > 100 µM (inactive)
XF498
  GI50: > 100 µM (inactive)

## CCCCCCCCCCC(O)CCCCCCC(=O)O (stereo unspecified)
786-0
  GI50: 24.5 µM (inactive)
A498
  GI50: 23.2 µM (inactive)
A549
  GI50: 18.2 µM (inactive)
ACHN
  GI50: 22.5 µM (inactive)
CAKI-1
  GI50: 36.3 µM (inactive)
CCRF-CEM
  GI50: 27.5 µM (inactive)
COLO 205
  GI50: 15.7 µM (inactive)
DLD-1
  GI50: 19.3 µM (inactive)
DMS-114
  GI50: 23.1 µM (inactive)
DMS-273
  GI50: 22.4 µM (inactive)
EKVX
  GI50: 31.7 µM (inactive)
HCT-116
  GI50: 17.2 µM (inactive)
HL-60
  GI50: 8.05 µM (inactive)
HOP-18
  GI50: 27.9 µM (inactive)
HOP-62
  GI50: 35.9 µM (inactive)
HOP-92
  GI50: 18.1 µM (inactive)
HT-29
  GI50: 19.9 µM (inactive)
IGROV-1
  GI50: 18.2 µM (inactive)
K562
  GI50: 13.2 µM (inactive)
KM12
  GI50: 16.3 µM (inactive)
LOX IMVI
  GI50: 15.8 µM (inactive)
LXFL 529
  GI50: 23.4 µM (inactive)
M14
  GI50: 19.1 µM (inactive)
M19-MEL
  GI50: 35.6 µM (inactive)
MOLT-4
  GI50: 12.7 µM (inactive)
Malme-3M
  GI50: 26.2 µM (inactive)
NCI-H226
  GI50: 52 µM (inactive)
NCI-H23
  GI50: 35 µM (inactive)
NCI-H460
  GI50: 16.3 µM (inactive)
NCI-H522
  GI50: 24.5 µM (inactive)
OVCAR-3
  GI50: 19.9 µM (inactive)
OVCAR-4
  GI50: 39.1 µM (inactive)
OVCAR-5
  GI50: 29.4 µM (inactive)
OVCAR-8
  GI50: 16.2 µM (inactive)
RPMI-8226
  GI50: 10.2 µM (inactive)
RXF 393
  GI50: 34.1 µM (inactive)
RXF 631
  GI50: 19.1 µM (inactive)
SF-268
  GI50: 77.4 µM (inactive)
SF-295
  GI50: 27.1 µM (inactive)
SF-539
  GI50: 24.3 µM (inactive)
SK-MEL-28
  GI50: 45.8 µM (inactive)
SK-MEL-2
  GI50: 47.9 µM (inactive)
SK-MEL-5
  GI50: 16 µM (inactive)
SK-OV-3
  GI50: 78.3 µM (inactive)
SN12C
  GI50: 21.1 µM (inactive)
SNB-19
  GI50: 48.8 µM (inactive)
SNB-75
  GI50: 42.5 µM (inactive)
SNB-78
  GI50: > 100 µM (inactive)
SR
  GI50: 15.1 µM (inactive)
SW-620
  GI50: 29.9 µM (inactive)
TK-10
  GI50: 65.9 µM (inactive)
U-251
  GI50: 14.9 µM (inactive)
UACC-257
  GI50: 69.3 µM (inactive)
UACC-62
  GI50: 19.8 µM (inactive)
UO-31
  GI50: 29.9 µM (inactive)
XF498
  GI50: 29.8 µM (inactive)

## CC(=O)OC1/C=C(\C)C(OC(C)=O)C/C=C(/C)CCC2C(/C=C/C1=O)C2(C)C (stereo unspecified)
A498
  GI50: > 100 µM (inactive)
A549
  GI50: > 100 µM (inactive)
ACHN
  GI50: > 100 µM (inactive)
CCRF-CEM
  GI50: > 100 µM (inactive)
COLO 205
  GI50: > 100 µM (inactive)
DLD-1
  GI50: > 100 µM (inactive)
EKVX
  GI50: > 100 µM (inactive)
HCC 2998
  GI50: > 100 µM (inactive)
HCT-116
  GI50: > 100 µM (inactive)
HCT-15
  GI50: > 100 µM
HOP-18
  GI50: > 100 µM (inactive)
HOP-62
  GI50: 92.5 µM (inactive)
HOP-92
  GI50: 42.2 µM (inactive)
HT-29
  GI50: > 100 µM (inactive)
IGROV-1
  GI50: > 100 µM (inactive)
KM-20L2
  GI50: > 100 µM (inactive)
KM12
  GI50: > 100 µM (inactive)
LOX IMVI
  GI50: > 100 µM (inactive)
LXFL 529
  GI50: > 100 µM (inactive)
M14
  GI50: > 100 µM (inactive)
M19-MEL
  GI50: > 100 µM (inactive)
MOLT-4
  GI50: > 100 µM (inactive)
Malme-3M
  GI50: > 100 µM (inactive)
NCI-H226
  GI50: > 100 µM (inactive)
NCI-H23
  GI50: > 100 µM (inactive)
NCI-H460
  GI50: > 100 µM (inactive)
NCI-H522
  GI50: 47.8 µM (inactive)
OVCAR-3
  GI50: > 100 µM (inactive)
OVCAR-4
  GI50: > 100 µM (inactive)
OVCAR-5
  GI50: > 100 µM (inactive)
OVCAR-8
  GI50: > 100 µM (inactive)
RXF 393
  GI50: 79.4 µM (inactive)
RXF 631
  GI50: > 100 µM (inactive)
SF-268
  GI50: > 100 µM (inactive)
SF-295
  GI50: 91 µM (inactive)
SF-539
  GI50: > 100 µM (inactive)
SK-MEL-28
  GI50: > 100 µM (inactive)
SK-MEL-2
  GI50: > 100 µM (inactive)
SK-MEL-5
  GI50: 92.9 µM (inactive)
SK-OV-3
  GI50: > 100 µM (inactive)
SN12C
  GI50: > 100 µM (inactive)
SNB-19
  GI50: > 100 µM (inactive)
SNB-75
  GI50: 31.2 µM (inactive)
SNB-78
  GI50: > 100 µM (inactive)
SW-620
  GI50: > 100 µM (inactive)
TK-10
  GI50: 64.7 µM (inactive)
U-251
  GI50: > 100 µM (inactive)
UACC-257
  GI50: > 100 µM (inactive)
UACC-62
  GI50: > 100 µM (inactive)
UO-31
  GI50: 67.5 µM (inactive)
XF498
  GI50: 35.7 µM (inactive)

— ChEMBL document CHEMBL1201862, “PubChem BioAssay data set” (2004)
